Data as given in US20040152739A1, “Acyclic pyrazole compounds for the inhibition of mitogen activated protein kinase-activated protein kinase-2” (priority 2002, published 2004).
Counter-ions that a name gives are not always drawn. Like-named read-outs stand apart in the source and are kept apart here.

Molecular target: MK-2 (Homo sapiens, UniProt P49137)
Assay: Determination of MK-2 IC50 (anion exchange resin capture assay, HSP-peptide phosphorylation)
Assay type: biochemical
Experimental: The phosphorylation of HSP-peptide ([sequence]) by MAPKAPK2 was measured using an anion exchange resin capture assay method. […] The reaction was terminated and [γ^33P]ATP was removed from solution by the addition of 150 μl of AG 1×8 ion exchange resin in 900 mM sodium formate pH 3.0. A 50 μl aliquot of head volume was removed from the quenched reaction mixture and added to a 96-well plate, 150 μl of Microscint-40 (Packard) was added and the amount of phosphorylated-peptide was determined. Allow the Microscint to sit in the plates for 60 minutes prior to counting.
Compounds are evaluated as potential inhibitors of the MK2 kinase by measuring their effects on MK2 phosphorylation of the peptide substrate. Compounds may be screened initially at two concentrations prior to determination of IC50 values. Screening results are expressed as percent inhibition at the concentrations of compound tested. For IC50 value determinations, compounds are tested at six concentrations in ten-fold serial dilutions with each concentration tested in triplicate. Results are expressed as IC50 values in micromolar. The assay is performed at a final concentration of 2% DMSO.
Compounds are evaluated as potential inhibitors of the MK-2 kinase by measuring their effects on MK-2 phosphorylation of the peptide substrate. Compounds may be screened initially at two concentrations prior to determination of IC50 values. Screening results are expressed as percent inhibition at the concentrations of compound tested. For IC50 value determinations, compounds are tested at six concentrations in ten-fold serial dilutions with each concentration tested in triplicate. Results are expressed as IC50 values in micromolar. The assay is performed at a final concentration of 2% DMSO.

Chain of MK-2 (P49137 whole entry, species assumed): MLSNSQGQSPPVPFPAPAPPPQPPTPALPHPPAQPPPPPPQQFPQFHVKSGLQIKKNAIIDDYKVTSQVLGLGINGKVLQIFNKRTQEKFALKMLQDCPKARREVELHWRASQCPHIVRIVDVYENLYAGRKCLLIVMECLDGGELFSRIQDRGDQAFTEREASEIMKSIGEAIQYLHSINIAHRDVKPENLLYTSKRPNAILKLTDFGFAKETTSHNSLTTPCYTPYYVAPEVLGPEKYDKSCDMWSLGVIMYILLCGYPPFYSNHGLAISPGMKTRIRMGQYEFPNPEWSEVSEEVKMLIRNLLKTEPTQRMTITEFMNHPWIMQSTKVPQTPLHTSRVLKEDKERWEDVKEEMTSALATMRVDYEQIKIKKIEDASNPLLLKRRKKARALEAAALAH

| SMILES | IC50 (MK-2 Avg. IC50) [µM] | IC50 (read-out: MK-2 Avg. IC50) [µM] |
| --- | --- | --- |
| CCOC(=O)c1cc(-c2ccnc(-c3ccc(O[Si](C)(C)C(C)(C)C)cc3)c2)nn1CCN [Example 136, ethyl 1-(2-aminoethyl)-3-[2-(4-{[tert-butyl(dimethyl)silyl]oxy}phenyl)pyridin-4-yl]-1H-pyrazole-5-carboxylate dihydrochloride] | 28.3 |  |
| CCOC(=O)c1cc(-c2ccnc(-c3cccc([N+](=O)[O-])c3)c2)nn1CCCN [Example 137, ethyl 1-(3-aminopropyl)-3-[2-(3-nitrophenyl)pyridin-4-yl]-1H-pyrazole-5-carboxylate dihydrochloride] |  | 31.6 |
| CN(C)c1cc(-c2cc3n(n2)CCNC3=O)ccn1 [Example 138, 2-[2-(dimethylamino)pyridin-4-yl]-6,7-dihydropyrazolo[1,5-a]pyrazin-4(5H)-one trifluoroacetate] |  | 37.2 |
| CCOC(=O)c1cc(-c2ccnc(-c3cnc4ccccc4c3)c2)nn1CCCN [Example 139, ethyl 1-(3-aminopropyl)-3-(2-quinolin-3-ylpyridin-4-yl)-1H-pyrazole-5-carboxylate dihydrochloride] |  | 38.6 |
| O=C1NCCn2nc(-c3ccnc(Cl)c3)cc21 [Example 140, 2-(2-chloropyridin-4-yl)-6,7-dihydropyrazolo[1,5-a]pyrazin-4(5H)-one] |  | 44.8 |
| CCOC(=O)c1cc(-c2ccnc(-c3ccc(O)cc3)c2)nn1CCCN [Example 141, ethyl 1-(3-aminopropyl)-3-[2-(4-hydroxyphenyl)pyridin-4-yl]-1H-pyrazole-5-carboxylate hydrochloride] |  | 47.5 |
| Cc1cnn(-c2cc(-c3cc4n(n3)CCCNC4=O)ccn2)c1 [Example 142, 2-[2-(4-methyl-1H-pyrazol-1-yl)pyridin-4-yl]-5,6,7,8-tetrahydro-4H-pyrazolo[1,5-a][1,4]diazepin-4-one trifluoroacetate] |  | 53.4 |
| CCOC(=O)c1cc(-c2ccncc2)nn1CCCN [Example 143, ethyl 1-(3-aminopropyl)-3-pyridin-4-yl-1H-pyrazole-5-carboxylate hydrochloride] |  | 60.8 |
| O=C1NCCn2nc(-c3ccnc(-c4ccc(Cl)c(Cl)c4)c3)cc21 [Example 144, 2-[2-(3,4-dichlorophenyl)pyridin-4-yl]-6,7-dihydropyrazolo[1,5-a]pyrazin-4(5H)-one trifluoroacetate] |  | 65.5 |
| O=C1NCCCn2nc(-c3ccnc(Cl)c3)cc21 [Example 145, 2-(2-chloropyridin-4-yl)-5,6,7,8-tetrahydro-4H-pyrazolo[1,5-a][1,4]diazepin-4-one] |  | 80.4 |
| O=C1NCCn2nc(-c3ccnc(-c4ccc(F)c(F)c4)c3)cc21 [Example 146, 2-[2-(3,4-difluorophenyl)pyridin-4-yl]-6,7-dihydropyrazolo[1,5-a]pyrazin-4(5H)-one trifluoroacetate] |  | 88.9 |
| O=C1NCCCn2nc(-c3ccc(O)cc3)cc21 [Example 147, 2-(4-hydroxyphenyl)-5,6,7,8-tetrahydro-4H-pyrazolo[1,5-a][1,4]diazepin-4-one] |  | 118 |
| O=C1NCCCn2nc(-c3ccnc(-c4ccc(OC(F)(F)F)cc4)c3)cc21 [Example 148, 2-{2-[4-(trifluoromethoxy)phenyl]pyridin-4-yl}-5,6,7,8-tetrahydro-4H-pyrazolo[1,5-a][1,4]diazepin-4-one] |  | 124 |
| O=C1NCCn2nc(-c3ccnc(-c4ccc(OC(F)(F)F)cc4)c3)cc21 [Example 149, 2-{2-[4-(trifluoromethoxy)phenyl]pyridin-4-yl}-6,7-dihydropyrazolo[1,5-a]pyrazin-4(5H)-one trifluoroacetate] |  | 131 |
| NCCCn1nc(-c2cccc(O)c2)cc1C(=O)O [Example 150, 1-(3-aminopropyl)-3-(3-hydroxyphenyl)-1H-pyrazole-5-carboxylic acid trifluoroacetate] |  | 153 |
| COc1ccc(-c2cc(C(=O)O)n(CCCNC(=O)OC(C)(C)C)n2)cc1 [Example 151, 1-{3-[(tert-butoxycarbonyl)amino]propyl}-3-(4-methoxyphenyl)-1H-pyrazole-5-carboxylic acid] |  | 155 |
